# What was measured:
# [1] = Antihypertensive evaluation (AHP3), aortic blood pressure and heart rate in conscious rats; type: in vivo, rat
# Method: This test procedure is described in the following paragraphs.
# The continuous monitoring of pulsatile blood pressure (BP) from unrestrained conscious rats surgically equipped witth polyethylene cannulas was accomplished by means of a computer assisted data capture scheme (CADCS). The basic elements of the methodology are the cannulation procedure and the CADCS.
# Rats were anesthetized with Telazol (1:1 tiletamine HCl and zolazepam HCl); 20-40 mg/kg IM and the descending aorta exposed via a midline incision. Cannulas fabricated from polyethylene tubing were inserted into the aorta via an undersized puncture hole below the renal arteries. The puncture hole was made by a 23 G disposable needle with a section of the aorta clamped off above and below the puncture site. The cannulas, consisting of a PE100 (0.86 mm ID) body and a PE50 (0.58 mm ID) tip, were attached to a trocar, inserted through the psoas muscle, and passed subcutaneously along the midline of the back and externalized between the ears. The cannulas were anchored to the psoas muscle and between the scalulae (3-0 green braided suture). The midline incision was closed in two steps (muscle first, skin second) using continuous over-and over sutures (4-0 chronic). Each rat was then given penicillin 30,000 units subcutaneously (Penicillin G Procaine Sterile Suspension).
# The rats were fitted with a harness-spring-swivel assembly designed to protect the cannula and to provide the rat relative freedom of movement. The harnesses were fabricated from nylon hook and loop tape cemented to a metal plate to which spring wires (18-8 stainless steel), were attached to brass swivels. Each polyethylene cannula was channeled through a spring and connected through a swivel to a pressure transducer (Model P23Gb; Statham Instruments; Hato Rey, Puerto Rico) and an infusion pump (Sage model 234-7; Orion Research, Cambridge, MA) by means of PE100 tubing. While on test, each rat received a continuous slow infusion of heparinized saline solution (approximately […] or 40 units of heparin per 24 hour period) to prevent clot formation. Additional "flushes" of the cannula with heparinized saline were carried out when the aortic pulse pressure (systolic minus diastolic) was less than 25 mm Hg.
# The pulsatile blood pressure and heart rate of each of 32 rats was monitored every minute by means of two in-laboratory microcomputers communicating directly with a data concentrator computer. The data were first stored on the data concentrator disk and then transferred to a magnetic tape for analysis and report generation by the main research computer. The overall scheme involved modulating the primary signal from the pressure transducer, generating the primary data set of the one-minute values for systolic, diastolic, and mean blood pressures and heart rate by the in-lab microcomputer and the storage, analysis, and report generation by the main reserach computer.
# The transducers were connected to analog signal conditioning modules. The modules provided a regulated excitation voltage for the transducers, amplification as required to interface the microprocessors and an active low pass filter to compensate for the pressure wave form distortion produced by the flexible, fluid filled, narrow cannula. The distortion was 22-26 Hz and this provided a reliable estimate of both systolic and diastolic blood pressure.
# The microcomputers (one for each of two groups of 16 rats) were connected to the input components through the module interface units, an analog-to-digital converter for the pressure wave form signal and the digital inputs for the dose and event marker switches. The microcomputer controlled the sequential acquisition of data from the modular interface units through an internal synchronous time-of-day clock/time base generator. Utilizing the time base generator as a reference, the blood pressure values and the marker switch status for each of the 32 stations were sampled every ten msec. […]
# [2] = tested on: rat heart; assay: Coronary blood flow (PCS2A), isolated perfused rat heart; set-up: species or system rat (male); details: read-out: effect on heart rate (HR)
# Method: Male rats (400-600 gms) are pretreated with Na heparin 2000 units and anesthetized with Na pentobarbital (50 mg/kg) administered intraperitoneally. Once anesthetized, the rat heart is rapidly excised, the ascending aorta fitted to the aortic perfusion cannula, and secured with a ligature. The coronary arteries are perfused initially at a rate of about 15 ml/min for two to three minutes, afterwhich they are perfused at constant pressure of 70 mm Hg and temperature of 37° C. The electrocardiogram (ECG) is recorded using two platinum electrodes positioned at the base and apex of the left ventricle. A second heart is excised, cannulated, and perfused by the same method outlined above. Both hearts are tested in parallel. The standard physiological salt solution (PSS) is a modified Krebs-Hanseleit bicarbonate buffer of the following composition in mM concentration: NaCl, 127; NaHCO3, 25; dextrose, 5.5; Na Pyruvate, 2.0; KCl, 4.7; MgSO4, 1.1; KH 2PO4, 1.2; CaCl2.2H2 O, 2.5; CaNa2 EDTA, 0.05.
# A 30-minute stabilization period is observed before starting the test protocol.
# The microprocessor control system is a servo mechanism which permits coronary perfusion pressure (CPP) and drug concentration to be maintained constant independent of changes in coronary flow. The level at which CPP and drug concentration are maintained can be changed by commands communicated through the microprocessor keyboard. Dose-response curves are carried out by perfusing concentrated drug solution (DC) at rates proportional to total coronary flow (CFT). Drug concentrations are increased by proportionate increases in the rate of DC infusion over CFT via the microprocessor keyboard. The proportional flow rates for DC:CFT is about 0.0002:1 at the low end and 0.02:1 at the high end of the dose-response curve. Dose-response curves encompassing at least two log doses are carried out by preparing two DCs with a concentration difference of 1:100. Following the first dose range of two log doses, the DC are switched, proportional pumping rate adjusted, and the dose-responsecurve continued for another two log doses. The standard dose-response curve is carried out in one-half log dose increments starting at a subthreshold dose and ending at a dose which produces near maximal response in activity. Standard reference compounds are tested over the range of 10^-9 to 10^-6 M.
# Measurements are for heart rate (HR) and coronary flow (CF). Units are: HR, beats/minute (bpm) and CF, milliliters/minute (ml/min). HR is calculated from the ECG strip chart recording and CF is calculated by recording analog outputs from pumps 1 and 2. Outputs from pump #1=CFT and the output from pump #2=CF for heart B (CFB). CF for heart A (CFA) is calculated (CFT -CFB =CFA).
# [3] = Mouse Activity and Screen Test (MAST), screen test failure (ST); type: in vivo, mouse (Swiss-Webster, male); details: Mus musculus, ip, 1 h, read-out: MAST ST LAD
# Method: (§1) Treatments are administered intraperitoneally one hour prior to testing. […] Compounds are dissolved or suspended in 0.2% Methocel. Control animals are injected with Methocel.
# (§2) The compounds are identified in the Examples.
# [4] = Mouse Activity and Screen Test (MAST), inhibition of locomotion (LI); type: in vivo, mouse (Swiss-Webster, male); details: one hour data
# Method: as §1
# Immediately following the screen test, the final phase of testing is initiated by placing each group of three mice in one actophotometer (Life Sciences, 22, 1067-1076, 1978). The actophotometer consists of a cylindrical chamber whose center is occupied by another cylinder which contains the illumination for six photocells located on the perimeter of the chamber. Six light-beam interruptions equal one count. Locomotor activity is recorded by computer at ten minute intervals for 60 minutes.
# as §2
smiles,measurement,setting,value
"OC[C@H]1O[C@@H](n2cnc3c(NCC(c4ccccc4)c4ccccc4)ncnc32)[C@H](O)[C@@H]1O [Example 1, N^6-(2,2-Diphenylethyl)adenosine]",change in MAP (decrease),[1]; 1 mg/kg,16%
same,change in heart rate (HR increase),[1]; 1 mg/kg,< 20%
same,change in MAP (decrease),[1]; 3 mg/kg,20%
same,change in heart rate (HR increase),[1]; 3 mg/kg,< 20%
same,change in MAP (decrease),[1]; 10 mg/kg,20%
same,change in heart rate (HR increase),[1]; 10 mg/kg,< 20%
same,change in MAP (decrease),[1]; 30 mg/kg,35%
same,change in heart rate (HR increase),[1]; 30 mg/kg,< 20%
same,activation at 0.001 µM,[2],1%
same,activation at 0.003 µM,[2],3%
same,activation at 0.01 µM,[2],-1%
same,activation at 0.1 µM,[2],-13%
same,activation at 1 µM,[2],-47%
same,minimal effective dose,[3],> 100 mg/kg
same,Inhibition of mouse locomotor activity,[4]; 10 mg/kg intraperitoneal,92%
same,Inhibition of mouse locomotor activity,[4]; 30 mg/kg intraperitoneal,93%
same,Inhibition of mouse locomotor activity,[4]; 100 mg/kg intraperitoneal,94%

# From US4657897A, “N^6 -substituted adenosines for treating pain” (Warner-Lambert Company, priority 1985, dated 1987)
